Entries after “also recorded” stand apart in the source; their conditions may differ.
Columns and labels:
(CUG)10 RNA = assay: Fluorescence titration (benzo[g]quinoline quenching); assay type: binding; details: (CUG)10, 1 μM compound in HBS-N
Procedure: The benzo[g]quinoline moiety is fluorescent, with excitation and emission maxima at 362 nm and 439 nm respectively in methanol. Fluorescence titration binding measurements were performed on a Cary Eclipse fluorescence spectrophotometer using a 10 mm path-length semimicro quartz fluorescence cell with 400 μL sample holding capacity. Absorbance measurements were carried out on a UV-Visible spectrophotometer (Shimadzu, UV-1601PC) using a 1 mL (1 cm path-length) quartz cell. Spectroscopic grade anhydrous methanol used in the measurement of relative quantum yield of the 2-ethyl benzo[g]quinoline carboxylic acid was purchased from Alfa Aesar and was used without further purification. For these measurements, known procedures were used (Lee and Grissom, “Design, Synthesis, and Characterization of Fluorescent Cobalamin Analogues with High Quantum Efficiencies,” Org. Lett. 11:2499-2502 (2009); Joseph R. Lakowicz, Principles of Fluorescence Spectroscopy, 2nd edition (Kluwer Academic/Plenum Publishers, 1999), which are hereby incorporated by reference in their entirety). Briefly, RNA (10 μM stock) in HBS-N buffer was titrated into a solution of 1 μM compound in HBS-N. After each addition of RNA, ten minutes were allowed for equilibration before recording the change in fluorescence at 468.5 nm. Fluorescence units (“FU”) were then corrected for dilution and the FU after each addition was subtracted from the FU at zero RNA concentration to give AFU. Following saturation, AFU was plotted against RNA concentration using Origin 7 (OriginLab, Inc.), and fitted to a 1:1 Langmuir binding model to obtain apparent dissociation constants (Kn). […]
Selected equilibrium affinities for (CUG)10 were confirmed by fluorescence titration. The quantum yield of the ethylbenzo[g]quinoline carboxylic acid (compound 2), relative to quinine sulfate, was determined to be 0.64 (FIGS. 5A-F). […] Apparent KD values measured in this manner are consistent with those obtained by SPR (Table 6); that they are not identical to SPR-measured values likely results from the differing formats of the two methods. […]

[1] = molecular target: (CUG)10 RNA (SEQ ID NO: 3); assay: SPR binding to immobilized biotinylated RNA
Procedure: (§1) SPR binding measurements were performed on a Biacore-X instrument (Biacore, Inc., Uppsala, Sweden) with two flow channels (FC1 and FC2). 5′-Biotinylated-RNA sequences, with a C6 linker separating the biotin label from the RNA (Integrated DNA Technologies Inc.) were immobilized on streptavidin (Rockland Immunochemicals) functionalized carboxylmethyl dextran coated sensor chips (CM5, G.E. Healthcare) using EDC/NHS (Advanced ChemTech) coupling chemistry. Filtered (0.2μ), degassed and autoclaved HBS-N buffer (0.01M Hepes, pH=7.4, 0.15 M NaCl) was employed as sample and as running buffer for all SPR experiments. A typical protocol for an experiment is as follows: A CM5 sensor chip was allowed to equilibrate to room temperature and then docked into the instrument. Following priming with running buffer, FC1 and FC2 were conditioned by manual injection of 20 μL aqueous NaOH (50 mM) at a flow rate of 30 μL/min. This was repeated 3 times followed by a wash command. Next, the carboxyl groups on the sensor chip surface in both flow cells were activated separately by injecting 60 μL of freshly prepared 1:1 mixture of EDC (0.4 M) and NHS (0.1 M) at a 5 μL/min flow rate followed by a wash. […] After washing, the surface was deactivated with 60 μL injection of ethanolamine (1M, pH=8.5) at 5 μL/min. The flow cells were primed, and the streptavidin surface in FC1 alone was blocked with 30 μL of biotin (20 μM in HBS-N) at 5 μL/min. The RNA (200 nM in running buffer, HBS-N) to be immobilized was unfolded by heating above its predicted melting temperature in a heated block for 2 min and then allowed to refold by cooling gradually to room temperature. The RNA was then immobilized in FC2 alone to response units ranging from 200-1000 RU using a 5 μL/min flow rate. Representative sensorgrams for the immobilization procedure is shown in FIGS. 2A-B. Two 20 μL aliquots of NaCl (0.5 M) were injected at a 30 μL/min flow rate to remove non-specifically bound RNA. The level of RNA immobilized was noted when the baseline was stable, usually after repeated buffer injection followed by a “prime” command. Binding measurements were performed by flowing various concentrations of the compounds to be analyzed over the immobilized RNA and recording the reference-subtracted (FC2−FC1) sensorgrams. For kinetic analysis, at least five sensorgrams corresponding to different concentrations of compound (usually ranging from 0.05-1 μM in HBS-N) were obtained using flow rates of either 60 μL/min or 30 μL/min. The experimental sensorgrams were globally fitted to a 1:1 binding equation (Biaevaluation software) to obtain association rates (ka) and dissociation rates ([…]) as well as equilibrium binding constants (KD). To measure the binding stoichiometry (n), the relations in equations (1-3) below were used: […]
(§2) where RUmax is the maximum resonance response unit at saturation, RURNA is the amount RU of RNA immobilized, n is the stoichiometry, MWcompound and MWRNA are molecular weights of compound and RNA respectively, and RUeq represents the resonance response at steady-state (equilibrium). The response units at equilibrium were subjected to Scatchard binding plots of (r/Cfree vs. r).
This technique allows the association and dissociation rates (ka and kd), equilibrium binding constants (KD), and the binding stoichiometry (n) to be measured in a label-free format (Liu and Wilson, “Quantitative Analysis of Small Molecule-nucleic Acid Interactions with a Biosensor Surface and Surface Plasmon Resonance Detection,” Methods Mol. Biol. 613:1-23 (2010), which is hereby incorporated by reference in its entirety).

[2] = test system: HIV-1 FSS RNA (SEQ ID NO: 7); assay: SPR binding to immobilized biotinylated RNA
Procedure: as §1
as §2, with “r). […]” for “r).”
SPR and fluorescence titration experiments, performed using the protocol described in Examples 3 and 4 above, except using as the target a highly conserved RNA sequence responsible for regulating the production of the Gag-Pol polyprotein via a −1 ribosomal frameshift, which occurs along a “slippery sequence” in gag-pol mRNA (SEQ ID NO: 7). This “frameshift stimulatory sequence” (or “HIV-1 FSS”) consists of an upper stemloop and a lower stem, separated by a purine bulge in the most common types of HIV (FIG. 19). For the fluorescent titration experiments, the upper stemloop of SEQ ID NO: 7 was employed. Cell uptake and toxicity studies were carried out using human fibroblasts according to Example 5 above.

[3] = test system: (CAG)10 RNA (SEQ ID NO: 5); assay: SPR binding to immobilized biotinylated RNA
Procedure: as §1, §2
(§3) The binding characteristics of compounds 3-11 were evaluated against pathogenic CUG^exp RNA and other RNA sequences by SPR. This technique allows the association and dissociation rates (ka and kd), equilibrium binding constants (KD), and the binding stoichiometry (n) to be measured in a label-free format (Liu and Wilson, “Quantitative Analysis of Small Molecule-nucleic Acid Interactions with a Biosensor Surface and Surface Plasmon Resonance Detection,” Methods Mol. Biol. 613:1-23 (2010), which is hereby incorporated by reference in its entirety). […]

[4] = test system: (CCUG)10 RNA (SEQ ID NO: 4); assay: SPR binding to immobilized biotinylated RNA; details: (CCUG)10
Procedure: as §1, §2, §3

[5] = test system: CUG-CAG duplex ("Duplex") (SEQ ID NO: 6); assay: SPR binding to immobilized biotinylated RNA; details: Duplex
Procedure: as §1, §2, §3

HSA^LR transgenic mice = assay: MBNL1-dependent splicing in mouse myotonic dystrophy model (RT-PCR, vastus muscle); assay type: in vivo; details: 40 mg/kg intraperitoneally once per day for 5 days
Procedure: Mouse handling and experimental procedures were conducted in accordance with the Association for Assessment and Accreditation of Laboratory Animal Care. […] Age- and gender-matched HSA^LR mice (12-16 weeks old) were injected intraperitoneally with 40 mg/kg of compounds or saline alone once per day for 5 days. Mice were sacrificed one day after the last injection, and vastus muscle was obtained for splicing analysis. RNA extraction, cDNA preparation, and RT-PCR were performed as described previously. The PCR products were electrophoresed on agarose gels for separation, and scanned with a laser fluorimager (Typhoon, GE Healthcare). Quantitative analysis of amplified products was performed by ImageQuant software (Molecular Dynamics). Differences between two groups were evaluated by unpaired Student's t-test. A critical test of a compound's performance is its ability to function in vivo. DM1 has several well-studied mouse models (Gomes-Pereira et al., “Myotonic Dystrophy Mouse Models: Towards Rational Therapy Development,” Trends Mol. Med. 17:506-517 (2011), which is hereby incorporated by reference in its entirety). Compound activity in the HSA^LR mouse model, in which transgenic mice carry a long CTG repeat inserted into the human skeletal actin (HSA) gene in skeletal muscle (Mankodi, “Myotonic Dystrophy in Transgenic Mice Expressing an Expanded CUG Repeat,” Science 289:1769-1772 (2000), which is hereby incorporated by reference in its entirety) was examined. […] They also display aberrant splicing of genes, including Clcn1 and Atp2a1, which are hallmarks of nuclear transcript sequestration.

mouse C2C12 myoblasts = assay: Cell permeability by fluorescence microscopy; assay type: cell-based; details: 12 h, 125 μM, intrinsic fluorescence
Procedure: For cell permeability studies, human fibroblasts or mouse myoblasts grown to 80% confluence were exposed to compounds for 12 hours in a 96 well tissue culture plate. After removal of the culture media (DMEM, with 10% FBS, 1% pen-strep (GIBCO)) the cells were washed twice with PBS to remove excess compounds. Cells were then imaged while in buffer under a fluorescence microscope (Olympus IX70) in the 96-well plate using a 460 nm emission filter.

Row | Compound | apparent KD ((CUG)10 RNA) | apparent KD ([1]; SPR, (CUG)10) | Residence time (t1/2) for compound binding to RNA [2] | Off-rates (koff) ([2]; SPR) | On-rates (kon) ([2]; SPR) | Residence time (t1/2) for compound binding to RNA ([1]; (CUG)10) | Off-rates (koff) ([1]; SPR, (CUG)10) | On-rates (kon) ([1]; SPR, (CUG)10) | sequence selectivity ([1]; SPR, CUG repeats versus other RNAs) | Residence time (t1/2) for compound binding to RNA [3] | Off-rates (koff) ([3]; SPR) | On-rates (kon) ([3]; SPR) | Residence time (t1/2) for compound binding to RNA [4] | Off-rates (koff) ([4]; SPR) | On-rates (kon) ([4]; SPR) | Residence time (t1/2) for compound binding to RNA [5] | Off-rates (koff) ([5]; SPR) | On-rates (kon) ([5]; SPR) | improvement of Clcn1 splicing (HSA^LR transgenic mice) | cell membrane penetration / localization (mouse C2C12 myoblasts)
1 | C=CC[C@H](NC(=O)[C@@H]1CCCN1C(=O)c1cc2cc3ccccc3cc2nc1CC)C(=O)N[C@@H](CCCCN)C(=O)NCCCN [Compound 3] | No binding | no measurable affinity; also recorded: complete lack of binding | – | – | – | – | – | – | – | – | – | – | – | – | – | – | – | – | – | –
2 | CCc1nc2cc3ccccc3cc2cc1C(=O)N[C@@H](CCCCN)C(=O)N[C@@H](C/C=C/C[C@H](NC(=O)[C@H](CCCCN)NC(=O)c1cc2cc3ccccc3cc2nc1CC)C(=O)N1CCC[C@H]1C(=O)NCCCN)C(=O)N1CCC[C@H]1C(=O)NCCCN [Compound 9] | – | reduced affinity | 5.775 min | 0.002 s⁻¹ | 32300 M⁻¹ s⁻¹ | 4.0527 min | 0.00285 s⁻¹ | 24200 M⁻¹ s⁻¹ | no selectivity for CUG or CCUG repeats relative to duplex CUG-CAG or HIV-1 FSS RNAs | 3.3575 min | 0.00344 s⁻¹ | 15700 M⁻¹ s⁻¹ | 4.262 min | 0.00271 s⁻¹ | 19900 M⁻¹ s⁻¹ | 6.2097 min | 0.00186 s⁻¹ | 24300 M⁻¹ s⁻¹ | not | significantly less able to enter cells than compounds 4, 5, or 11

Source: patent publication US20140050778A1, “NUCLEIC ACID BINDING COMPOUNDS, METHODS OF MAKING, AND USE THEREOF” (UNIVERSITY OF ROCHESTER, priority 2010, published 2014)
